Source: PMC7180572, “5-Alkylamino-N-phenylpyrazine-2-carboxamides: Design, Preparation, and Antimycobacterial Evaluation” (Molecules, 2020)
In brackets after ≈: the same amount, converted by molar mass. Read-outs that look alike come from different tables or passages of the source.

Columns and labels:
[1] = tested on: Candida albicans ATCC 24433, CCM 8320; assay: Antifungal microdilution broth method (EUCAST); type: cell-based
[2] = tested on: M. avium ssp. avium CNCTC My 80/72 (ATCC 15769); assay: 96 well plate microdilution broth method with Alamar Blue; type: cell-based; details: Mycobacterium avium
[3] = tested on: Mycobacterium tuberculosis H37Ra ITM-M006710 (ATCC 9431); assay: Microdilution broth, modified Microplate Alamar Blue Assay, whole cell growth inhibition; type: cell-based; details: Mycobacterium tuberculosis, read-out: MIC Mtb H37Ra
[4] = tested on: Trichophyton interdigitale ATCC 9533, CCM 8377; assay: Antifungal microdilution broth method (EUCAST); type: cell-based; details: read-out: MIC TI
[5] = tested on: Candida krusei ATCC 6258, CCM 8271; assay: Antifungal microdilution broth method (EUCAST); type: cell-based; details: Pichia kudriavzevii
[6] = tested on: Candida parapsilosis ATCC 22019, CCM 8260; assay: Antifungal microdilution broth method (EUCAST); type: cell-based; details: Lodderomyces parapsilosis
[7] = tested on: Absidia corymbifera CCM 8077 (Lichtheimia corymbifera); assay: Antifungal microdilution broth method (EUCAST); type: cell-based; details: read-out: MIC AC
[8] = tested on: Acinetobacter baumanii ATCC 19606, DSM 30007; assay: Antibacterial microdilution broth method (EUCAST); type: cell-based; details: Acinetobacter baumannii
[9] = tested on: Mycobacterium smegmatis DSM 43465 (ATCC 607); assay: Microdilution broth, modified Microplate Alamar Blue Assay, whole cell growth inhibition; type: cell-based; details: Mycolicibacterium smegmatis, read-out: MIC Mycobacterium smegmatis
[10] = tested on: Aspergillus fumigatus ATCC 204305; assay: Antifungal microdilution broth method (EUCAST); type: cell-based; details: read-out: MIC AF
[11] = tested on: Pseudomonas aeruginosa ATCC 27853, CCM 3955; assay: Antibacterial microdilution broth method (EUCAST); type: cell-based; details: read-out: MIC PA
[12] = tested on: Staphylococcus aureus methicillin resistant ATCC 43300, CCM 4750; assay: microbe, parasite or virus in culture; type: cell-based; details: ATCC 43300 / CCM 4750 / MRSA, read-out: MIC MRSA
[13] = tested on: Staphylococcus aureus spp.aureus ATCC 29213, CCM 4223; assay: Antibacterial microdilution broth method (EUCAST); type: cell-based; details: read-out: MIC SA
[14] = tested on: Aspergillus flavus CCM 8363; assay: Antifungal microdilution broth method (EUCAST); type: cell-based; details: read-out: MIC AFla
[15] = tested on: Klebsiella pneumoniae ATCC 10031, CCM 4415; assay: Antibacterial microdilution broth method (EUCAST)
[16] = tested on: Enterococcus faecalis ATCC 29212, CCM 4224; assay: Antibacterial microdilution broth method (EUCAST); type: cell-based; details: read-out: MIC EF
[17] = tested on: Candida tropicalis ATCC 750, CCM 8264; assay: Antifungal microdilution broth method (EUCAST); type: cell-based; details: read-out: MIC CT
[18] = tested on: Mycobacterium aurum DSM 43999 (ATCC 23366); assay: Microdilution broth, modified Microplate Alamar Blue Assay, whole cell growth inhibition; type: cell-based; details: Mycolicibacterium aurum, read-out: MIC Mycobacterium aurum
HepG2 cells = assay: HepG2 cytotoxicity, CellTiter 96 (MTS) assay; type: cell-based, human; details: for IC50: Homo sapiens, read-out: HepG2 IC50; for SI, selectivity index: IC50 (HepG2)/MIC against Mtb H37Ra (in µM)
[19] = tested on: M. kansasii CNCTC My 235/80 (ATCC 12478); assay: 96 well plate microdilution broth method with Alamar Blue; type: cell-based; details: Mycobacterium kansasii
[20] = tested on: Staphylococcus epidermidis ATCC 12228, CCM 4418; assay: Antibacterial microdilution broth method (EUCAST); type: cell-based; details: read-out: MIC SE
[21] = tested on: Escherichia coli ATCC 25922, CCM 3954; assay: Antibacterial microdilution broth method (EUCAST); type: cell-based; details: read-out: MIC EC
[22] = type: physicochemical
Method: As a complementary test, final compounds were tested for in vitro activity against selected fungal and bacterial pathogens of clinical importance. The microdilution broth method was performed according to The European Committee on Antimicrobial Susceptibility Testing (EUCAST) instructions with slight modifications. The minimum inhibitory concentration was expressed in µM. Not all compounds were evaluated due to the fact of a problem with solubility which occurred for 18 samples. […] See Supplementary Materials for the list of tested strains, methodology, and full results.

[23] = ATCC15769, pH 6.6, read-out: MIC Mycobacterium avium
[24] = in vitro, Middlebrook 7H9 broth, resazurin
[25] = ATCC12478, pH 6.6, read-out: MIC Mycobacterium kansasii
[26] = read-out: MIC CA (Candida albicans)
[27] = read-out: MIC CK (Candida krusei)
[28] = read-out: MIC CP (Candida parapsilosis)

## CCCCCCCNc1cnc(C(=O)Nc2ccc(C)cc2)cn1 [Compound 4e, 5-(Heptylamino)-N-(p-tolyl)pyrazine-2-carboxamide]
[1]; 24 h, read-out: MIC CA
  MIC: > 125 µM
[1]; 48 h, read-out: MIC CA
  MIC: > 125 µM
[2]; [23]
  MIC: > 100 µg/mL
[3]; MIC converted to µM
  MIC: 2.39 µM
[3]; [24]
  MIC: 0.78 µg/mL
[4]; 72 h
  MIC: > 125 µM
[4]; 120 h
  MIC: > 125 µM
[5]; 24 h, read-out: MIC CK
  MIC: > 125 µM
[5]; 48 h, read-out: MIC CK
  MIC: > 125 µM
[6]; 24 h, read-out: MIC CP
  MIC: > 125 µM
[6]; 48 h, read-out: MIC CP
  MIC: > 125 µM
[7]; CCM8077, 24 h
  MIC: > 125 µM
[7]; CCM8077, 48 h
  MIC: > 125 µM
[8]; 24h
  MIC: > 500 µM
[8]; 48h
  MIC: > 500 µM
[9]
  MIC: ≥ 500 µg/mL
[10]; ATCC204305, 24 h
  MIC: > 125 µM
[10]; ATCC204305, 48 h
  MIC: > 125 µM
[11]; 72 h
  MIC: > 500 µM
[11]; 120 h
  MIC: > 500 µM
[12]; 24 h
  MIC: > 500 µM
[12]; 48 h
  MIC: > 500 µM
[13]; 24 h
  MIC: > 500 µM
[13]; 48 h
  MIC: > 500 µM
other
  melting point: 157.8 to 158.9 °C
[14]; CCM8363, 24 h
  MIC: > 125 µM
[14]; CCM8363, 48 h
  MIC: > 125 µM
[15]; 24h
  MIC KP: > 500 µM
[15]; 48h
  MIC KP: > 500 µM
[16]; 24 h
  MIC: > 500 µM
[16]; 48 h
  MIC: > 500 µM
[17]; 24 h
  MIC: > 125 µM
[17]; 48 h
  MIC: > 125 µM
[18]
  MIC: ≥ 500 µg/mL
HepG2 cells; HepG2, 24 h
  IC50: > 50 µM
HepG2 cells
  SI, selectivity index: >20.91
[19]; [25]
  MIC: 12.5 µg/mL (≈ 38.3 µM)
[20]; 24 h
  MIC: > 500 µM
[20]; 48 h
  MIC: > 500 µM
[21]; 24 h
  MIC: > 500 µM
[21]; 48 h
  MIC: > 500 µM

## CCCCCCCNc1cnc(C(=O)Nc2ccc(Cl)cc2O)cn1 [Compound 6e, N-(4-chloro-2-hydroxyphenyl)-5-(heptylamino)pyrazine-2-carboxamide]
[2]; ATCC15769, Middlebrook 7H9 broth pH 6.6, read-out: MIC Mycobacterium avium
  MIC: > 100 µg/mL
[3]; [24]
  MIC: ≥ 500 µg/mL
[22]
  Solubility problem in antibacterial/antifungal testing: did not dissolve in DMSO
[9]; [24]
  MIC: ≥ 500 µg/mL
other
  melting point: 199.8 to 200.8 °C
[18]; [24]
  MIC: ≥ 500 µg/mL
HepG2 cells; HepG2, 24 h incubation, > means higher concentration not reproducible due to precipitation
  IC50: > 25 µM
[19]; ATCC12478, Middlebrook 7H9 broth pH 6.6, read-out: MIC Mycobacterium kansasii
  MIC: 25 µg/mL (≈ 68.9 µM)

## CCCCCNc1cnc(C(=O)Nc2ccc(O)cc2)cn1 [Compound 3c, N-(4-hydroxyphenyl)-5-(pentylamino)pyrazine-2-carboxamide]
[1]; 24 h, read-out: MIC CA
  MIC: 62.5 µM (≈ 18.8 µg/mL)
[1]; 48 h, read-out: MIC CA
  MIC: 62.5 µM (≈ 18.8 µg/mL)
[1]; [26]
  MIC: 62.5 µM (≈ 18.8 µg/mL)
[2]; [23]
  MIC: 50 µg/mL (≈ 166 µM)
[3]; MIC converted to µM
  MIC: 13 µM
[3]; [24]
  MIC: 3.91 µg/mL
[4]; 72 h
  MIC: > 125 µM
[4]; 120 h
  MIC: > 125 µM
[5]; 24 h, read-out: MIC CK
  MIC: > 125 µM
[5]; 48 h, read-out: MIC CK
  MIC: > 125 µM
[5]; [27]
  MIC: > 125 µM
[6]; 24 h, read-out: MIC CP
  MIC: > 125 µM
[6]; 48 h, read-out: MIC CP
  MIC: > 125 µM
[6]; [28]
  MIC: > 125 µM
[7]; CCM8077, 24 h
  MIC: > 125 µM
[7]; CCM8077, 48 h
  MIC: > 125 µM
[8]; 24h
  MIC: > 125 µM
[8]; 48h
  MIC: > 125 µM
[9]
  MIC: 31.2 µg/mL (≈ 104 µM)
[10]; ATCC204305, 24 h
  MIC: > 125 µM
[10]; ATCC204305, 48 h
  MIC: > 125 µM
[11]; 72 h
  MIC: > 125 µM
[11]; 120 h
  MIC: > 125 µM
[12]; 24 h
  MIC: > 125 µM
[12]; 48 h
  MIC: > 125 µM
[13]; 24 h
  MIC: > 125 µM
[13]; 48 h
  MIC: > 125 µM
other
  melting point: 162.6 to 166.8 °C
[14]; CCM8363, 24 h
  MIC: > 125 µM
[14]; CCM8363, 48 h
  MIC: > 125 µM
[15]; 24h
  MIC KP: > 125 µM
[15]; 48h
  MIC KP: > 125 µM
[16]; 24 h
  MIC: > 125 µM
[16]; 48 h
  MIC: > 125 µM
[17]; 24 h
  MIC: > 125 µM
[17]; 48 h
  MIC: > 125 µM
[18]
  MIC: ≥ 500 µg/mL
HepG2 cells; 24 h incubation, > means higher concentration not reproducible due to precipitation
  HepG2 IC50: above the tested range of concentrations
HepG2 cells; HepG2, 24 h
  IC50: > 500 µM
HepG2 cells
  SI, selectivity index: >38.4
[19]; [25]
  MIC: 12.5 µg/mL (≈ 41.6 µM)
[20]; 24 h
  MIC: > 125 µM
[20]; 48 h
  MIC: > 125 µM
[21]; 24 h
  MIC: > 125 µM
[21]; 48 h
  MIC: > 125 µM

## CCCCCCNc1cnc(C(=O)Nc2ccc(C)cc2)cn1 [Compound 4d, 5-(Hexylamino)-N-(p-tolyl)pyrazine-2-carboxamide]
[1]; 24 h, read-out: MIC CA
  MIC: > 125 µM
[1]; 48 h, read-out: MIC CA
  MIC: > 125 µM
[1]; [26]
  MIC: > 125 µM
[2]; [23]
  MIC: > 100 µg/mL
[3]; MIC converted to µM
  MIC: 4.99 µM
[3]; [24]
  MIC: 1.56 µg/mL
[4]; 72 h
  MIC: > 125 µM
[4]; 120 h
  MIC: > 125 µM
[5]; 24 h, read-out: MIC CK
  MIC: 125 µM (≈ 39.1 µg/mL)
[5]; 48 h, read-out: MIC CK
  MIC: 125 µM (≈ 39.1 µg/mL)
[5]; [27]
  MIC: 125 µM (≈ 39.1 µg/mL)
[6]; 24 h, read-out: MIC CP
  MIC: 125 µM (≈ 39.1 µg/mL)
[6]; 48 h, read-out: MIC CP
  MIC: 125 µM (≈ 39.1 µg/mL)
[6]; [28]
  MIC: 125 µM (≈ 39.1 µg/mL)
[7]; CCM8077, 24 h
  MIC: > 125 µM
[7]; CCM8077, 48 h
  MIC: > 125 µM
[8]; 24h
  MIC: > 500 µM
[8]; 48h
  MIC: > 500 µM
[9]
  MIC: ≥ 500 µg/mL
[10]; ATCC204305, 24 h
  MIC: > 125 µM
[10]; ATCC204305, 48 h
  MIC: > 125 µM
[11]; 72 h
  MIC: > 500 µM
[11]; 120 h
  MIC: > 500 µM
[12]; 24 h
  MIC: > 500 µM
[12]; 48 h
  MIC: > 500 µM
[13]; 24 h
  MIC: > 500 µM
[13]; 48 h
  MIC: > 500 µM
other
  melting point: 163 to 164 °C
[14]; CCM8363, 24 h
  MIC: > 125 µM
[14]; CCM8363, 48 h
  MIC: > 125 µM
[15]; 24h
  MIC KP: > 500 µM
[15]; 48h
  MIC KP: > 500 µM
[16]; 24 h
  MIC: > 500 µM
[16]; 48 h
  MIC: > 500 µM
[17]; 24 h
  MIC: > 125 µM
[17]; 48 h
  MIC: > 125 µM
[18]
  MIC: ≥ 500 µg/mL
HepG2 cells; HepG2, 24 h
  IC50: > 50 µM
HepG2 cells
  SI, selectivity index: >10.01
[19]; [25]
  MIC: 12.5 µg/mL (≈ 40 µM)
[20]; 24 h
  MIC: > 500 µM
[20]; 48 h
  MIC: > 500 µM
[21]; 24 h
  MIC: > 500 µM
[21]; 48 h
  MIC: > 500 µM
